Where two headings read alike, the source gives them in different places. Non-standard residues stand in square brackets, D forms with d. Residues, ends and D or L forms follow the SMILES beside them. 3Amb = NCc1cccc(C(=O)O)c1
How the values were obtained:
[1] = tested on: dog thrombosis model (carotid artery, femoral artery, femoral vein); assay: Carotid, Femoral Artery and Femoral Vein Thrombosis in Dogs (Electrolytic Injury Model); format: in vivo; details: for Incidence of Occlusion / Time to Occlusion / Blood Flow, Basal / Blood Flow, End: dog carotid artery; for Incidence of Occlusion: saline 44/44; for Time to Occlusion: saline 93 ±30.4; for Blood Flow, End: saline 0; for Thrombus Weight (wet, mg), left femoral vein / Thrombus Weight (wet, mg), left carotid artery: dog, P<0.05
Source text: Carotid, Femoral Artery and Femoral Vein Thrombosis In Dogs (Electrolytic Injury Model)
The thrombosis model used in this study is a modification of the one described by Rote et al., J. Cardiovascular Pharmacolgy, 1993, 23:194-202. The experimental procedure provides the formation of a platelet rich intravascular thrombus at the site of the electrolytically-induced lesion in the arterial side. The femoral artery and carotid artery responses to the electrolytic injury are similar to that observed in the canine coronary artery in which intimal wall injury secondary to application of a direct anodal current leads to platelet adherence with the resultant occlusive thrombus formation (Rote et al., J. Cardiovascular Pharmacolgy, 1993, 23:194-202; Mousa et al., Circulation, 1994, 89:3-12). Animals were instrumented and a 20-30 mm segment of the femoral or carotid arteries were exposed and freed from facia, and branches were tied. Anodal current was applied using an intravascular electrode Penetration of the vessel wall by the electrode was facilitated by attaching the tip of a 23 gauge hypodermic needle to the uninsulated part of the electrode. Each intra-arterial electrode was connected to the positive pole (anodal) of a dual channel stimulator (Ni-Cad battery, 9 volts connected to 250,000 Ohm potentiometer in series). The cathode was connected to a distant subcutaneous site. The current delivered to the arterial wall was monitored continuously and maintained at 200 μA. Proper positioning of the electrode in the artery was confirmed by visual inspection at the end of each experiment. In all experiments the anodal current was applied for a maximum period of 3 hours. Arterial flow was monitored throughout the experiment by placing a doppler flow probe connected to a flow meter around the distal portion of the vessel segment. Similar procedures were applied to the femoral vein. […]

[2] = dog, in vivo, iv
Protocol: A Simplate device (Organo Teknika) was applied to the surface of the tongue to make a uniform incision and blood was blotted with filter paper at 30 seconds intervals until bleeding completely stopped, with a 15 minutes cutoff time. Bleeding time was assessed before and at different intervals post-administration of test agent.

[3] = dog, in vivo
Protocol: Clotting Assay (Thrombin and Apothrombin Times)
Arterial blood samples were collected in 1/10th volume 3.8% sodium citrate and stored on ice for less than ten 10 minutes. Samples were centrifuged (10,000× g, 1.5 minutes) and plasma separated from cellular components. Clotting assays were performed within 30 minutes of collection in a fibrometer (BBL Bibrosystem) at 37° C. Thrombin time determinations were performed at a final thrombin concentration of 4 units/mL. Activated partial thromboplastin time (also referred to as apothrombin time) (APTT) was determined by incubating 0.1 mL plasma with 0.1 mL APTT reagent (Sigma Chemical) for three minutes, followed by addition of 0.1 mL of 25 mM CaCl2. Prothrombin time was determined by incubating 0.1 mL plasma with 0.1 mL thromboplastin, and clotting initiated by addition of 0.1 mL of 25 mM CaCl2. Assays were performed in duplicate.

[4] = 0.1 mg/kg IV bolus + 0.1 mg/kg IV infusion 3 hr
[5] = 0.1 mg/kg IV bolus + 0.4 mg/kg IV infusion 3 hr

SMILES	Incidence of Occlusion [1, 4]	Time to Occlusion [1, 4] [min]	Blood Flow, Basal ([1]; 0.1 mg/kg IV bolus + 0.1 mg/kg IV infusion 3 hr, spread ±4.7) [cm/s]	Blood Flow, End ([1]; 0.1 mg/kg IV bolus + 0.1 mg/kg IV infusion 3 hr, spread ±11) [cm/s]	Incidence of Occlusion [1, 5]	Time to Occlusion [1, 5] [min]	Blood Flow, Basal ([1]; 0.1 mg/kg IV bolus + 0.4 mg/kg IV infusion 3 hr, spread ±2.7) [cm/s]	Blood Flow, End ([1]; 0.1 mg/kg IV bolus + 0.4 mg/kg IV infusion 3 hr, spread ±8.1) [cm/s]	Cyclic Flow Rate (frequency/hr) ([1]; dog femoral artery, 0.1 mg/kg IV bolus + 0.1 mg/kg IV infusion 3 hr, n=4, mean ± SD, P<0.01, saline 8 ± 5.5)	Thrombus Weight (wet, mg), left femoral vein ([1]; 0.1 mg/kg IV bolus + 0.4 mg/kg infusion 3 hr, n=4, mean ± SD, saline 18 ± 5) [mg]	Thrombus Weight (wet, mg), left carotid artery ([1]; 0.1 mg/kg IV bolus + 0.4 mg/kg infusion 3 hr, n=4, mean ± SD, saline 53 ± 4) [mg]	Thrombus Weight (wet, mg), left carotid artery ([1]; 1 mg/kg IV bolus, n=3, 200 μA, mean ± SD, saline right carotid 51 ± 4) [mg]	Thrombus Weight (wet, mg), left femoral vein ([1]; 1 mg/kg IV bolus, n=3, 200 μA, mean ± SD, saline right femoral vein 18 ± 5) [mg]	Bleeding Time ([2]; 1 mg/kg) [min]	Bleeding Time ([2]; 3 mg/kg) [min]	Bleeding Time ([2]; 10 mg/kg) [min]	effect on apothrombin time or thrombin time [3]
C[C@@H]1NC(=O)c2cccc(c2)CNC(=O)[C@H](CC(=O)O)NC(=O)CNC(=O)[C@H](CCCNC(=N)N)NC1=O [Compound A, cyclo-(Ala-Arg-Gly-Asp-Mamb)] (cyclo(RGD[3Amb]A))	0/4	> 180	29.4	16.3	0/4	> 180	30.2	23.8	0.5 ± 0.4	2 ± 1	13 ± 2	14 ± 4	4 ± 3				
N=C(N)NCCC[C@@H]1NC(=O)[C@@H]2CCCN2C(=O)c2cccc(c2)CNC(=O)[C@H](CC(=O)O)NC(=O)CNC1=O [Compound B, cyclo-(Pro-Arg-Gly-Asp-Mamb)] (cyclo(RGD[3Amb]P))														3 to 4	3 to 4	3 to 4	no effect on apothrombin time or thrombin time
